# Reference: patent US20230339877A1, “Synthesis and Composition of Neurolenin D Mesylate and Related Compounds - New Drugs for the Treatment of Parasitic Nematode Infections in Humans, Animals and Plants” (Smith College, priority 2022, published 2023)
# Counter-ions that a name gives are not always drawn.
# Legend:
# [1] = test system: adult male Brugia pahangi parasites (BP AM); assay: Killing of adult male Brugia pahangi parasites (BP AM) in culture; assay type: cell-based
# Experimental: (§1) The drug was applied at 1, 2 and 3 parts per million (ppm) and was 100% effective at killing the parasites at all three concentrations. Even at 1 ppm, all parasites were killed within 120 hours after treatment. The control treatment is with 1, 2 and 3 ppm ethanol given to the parasites in culture under the same conditions. One adult male parasite treated with 1 ppm ethanol died at about 40 hours. This death is not experimentally significant as occasionally a parasite dies in culture without any drug treatment.
# [2] = Biological activity assays for toxicity and mutagenicity; details: preliminary data
# [3] = test system: adult female Brugia pahangi parasites (BP AF); assay: Killing of adult female Brugia pahangi parasites (BP AF) in culture; assay type: cell-based
# Experimental: as §1, with “90” for “120”, “female” for “male”, “80” for “40”
# [4] = test system: microfilariae (larvae); assay: Killing of microfilariae (larvae) produced following mating of adult parasites; assay type: cell-based, Brugia pahangi; details: repeated experiments
# From the text: 100% of all adult male and female parasites are always killed upon treatment with NDM.
# [5] = repeated in many separate trials
smiles,measurement,setting,value
"C=C1C(=O)O[C@@H]2C[C@H](C)/C=C\C(=O)[C@](C)(O)[C@@H](OS(C)(=O)=O)[C@@H](OC(=O)CC(C)C)[C@@H]12 [NDM, Neurolenin D Mesylate]",time after treatment by which all parasites were killed,"[1]; adult male BP in culture, 1 ppm",≤ 120 h
same,effective at killing the parasites,"[1]; adult male BP in culture, drug applied at 1, 2 and 3 ppm, all three concentrations, FIG. 2",100%
same,speed of killing compared with other neurolenin derivatives,"[1]; adult male BP, FIG. 2, at the endpoint 100% of worms killed",more slowly
same,adult male parasites killed upon treatment,[1]; [5],100%
same,mutagenicity,[2],not toxic or mutagenic
same,toxicity,[2],not toxic
same,time after treatment by which all parasites were killed,"[3]; adult female BP in culture, 1 ppm",≤ 90 h
same,effective at killing the parasites,"[3]; adult female BP in culture, drug applied at 1, 2 and 3 ppm, all three concentrations, FIG. 1",100%
same,speed of killing compared with other neurolenin derivatives,"[3]; adult female BP, FIG. 1, at the endpoint 100% of worms killed",more slowly
same,adult female parasites killed upon treatment,[3]; [5],100%
same,microfilariae (larvae) killed,[4],100%
